# Structures can show the parent of a compound that is named as a salt.
# Biological target: Platelet-activating factor receptor (Oryctolagus cuniculus)
# Test: Antagonist activity against platelet activating factor (PAF) receptor in rabbit platelet membranes using [3H]C18-PAF as radioligand
row,Ki [nM],SMILES
1,2.6,Cc1ccc2c(C(=O)[C@@H]3CSC(c4cccnc4)N3)cn(C(=O)OC(C)(C)C)c2c1 (stereo partly drawn) [6-Methyl-3-((R)-2-pyridin-3-yl-thiazolidine-4-carbonyl)-indole-1-carboxylic acid tert-butyl ester]
2,3.6,CN(C)C(=O)n1cc(C(=O)[C@@H]2CSC(c3cccnc3)N2)c2ccc(-c3ccccc3)cc21 (stereo partly drawn) [6-Phenyl-3-((R)-2-pyridin-3-yl-thiazolidine-4-carbonyl)-indole-1-carboxylic acid dimethylamide]
3,1.3,CN(C)C(=O)n1cc(C(=O)[C@@H]2CSC(c3cccnc3)N2)c2ccc(C#Cc3ccccc3)cc21 (stereo partly drawn) [6-Phenylethynyl-3-((R)-2-pyridin-3-yl-thiazolidine-4-carbonyl)-indole-1-carboxylic acid dimethylamide]
4,40,CN(C)C(=O)n1cc(C(=O)[C@@H]2CSC(c3cccnc3)N2)c2ccc(-c3cccnc3)cc21 (stereo partly drawn) [6-Pyridin-3-yl-3-((R)-2-pyridin-3-yl-thiazolidine-4-carbonyl)-indole-1-carboxylic acid dimethylamide]
5,14,CN(C)C(=O)n1cc(C(=O)[C@@H]2CSC(c3cccnc3)N2)c2cccc(OCc3ccccc3)c21 (stereo partly drawn) [7-Benzyloxy-3-((R)-2-pyridin-3-yl-thiazolidine-4-carbonyl)-indole-1-carboxylic acid dimethylamide]
6,18,CCS(=O)(=O)n1cc(C(=O)[C@@H]2CSC(c3cccnc3)N2)c2ccccc21 (stereo partly drawn) [(1-Ethanesulfonyl-1H-indol-3-yl)-((R)-2-pyridin-3-yl-thiazolidin-4-yl)-methanone]
7,13,O=C(c1c[nH]c2cccc(OCc3ccccc3)c12)[C@@H]1CSC(c2cccnc2)N1 (stereo partly drawn) [(4-Benzyloxy-1H-indol-3-yl)-((R)-2-pyridin-3-yl-thiazolidin-4-yl)-methanone]
8,3.4,O=C(c1cn(C(=O)c2ccc(Cl)cc2)c2ccccc12)[C@@H]1CSC(c2cccnc2)N1 (stereo partly drawn) [(4-Chloro-phenyl)-[3-((R)-2-pyridin-3-yl-thiazolidine-4-carbonyl)-indol-1-yl]-methanone]
9,15,O=C(C1CSC(c2cccnc2)N1)n1ccc2cc(OCc3ccccc3)ccc21 (centres undefined) [(5-Benzyloxy-indol-1-yl)-(2-pyridin-3-yl-thiazolidin-4-yl)-methanone]
10,95,O=C(c1ccccc1)c1ccc2ccn(C(=O)[C@@H]3CSC(c4cccnc4)N3)c2c1 (stereo partly drawn) [(6-Benzoyl-indol-1-yl)-((R)-2-pyridin-3-yl-thiazolidin-4-yl)-methanone]
11,8.1,CCS(=O)(=O)n1cc(C(=O)[C@@H]2CSC(c3cccnc3)N2)c2ccc(OCc3ccccc3)cc21 (stereo partly drawn) [(6-Benzyloxy-1-ethanesulfonyl-1H-indol-3-yl)-((R)-2-pyridin-3-yl-thiazolidin-4-yl)-methanone]
12,1.6,O=C(c1c[nH]c2cc(OCc3ccccc3)ccc12)[C@@H]1CSC(c2cccnc2)N1 (stereo partly drawn) [(6-Benzyloxy-1H-indol-3-yl)-((R)-2-pyridin-3-yl-thiazolidin-4-yl)-methanone]
13,16,Cc1[nH]c2cc(OCc3ccccc3)ccc2c1C(=O)[C@@H]1CSC(c2cccnc2)N1 (stereo partly drawn) [(6-Benzyloxy-2-methyl-1H-indol-3-yl)-((R)-2-pyridin-3-yl-thiazolidin-4-yl)-methanone]
14,52,O=C([C@@H]1CSC(c2cccnc2)N1)n1ccc2ccc(OCc3ccccc3)cc21 (stereo partly drawn) [(6-Benzyloxy-indol-1-yl)-((R)-2-pyridin-3-yl-thiazolidin-4-yl)-methanone]
15,14,O=C(c1c[nH]c2cc(-c3ccccc3)ccc12)[C@@H]1CSC(c2cccnc2)N1 (stereo partly drawn) [(6-Phenyl-1H-indol-3-yl)-((R)-2-pyridin-3-yl-thiazolidin-4-yl)-methanone]
16,1.1,O=C(c1c[nH]c2c(OCc3ccccc3)cccc12)[C@@H]1CSC(c2cccnc2)N1 (stereo partly drawn) [(7-Benzyloxy-1H-indol-3-yl)-((R)-2-pyridin-3-yl-thiazolidin-4-yl)-methanone; TFA]
17,385,O=C([C@@H]1CSC(c2cccnc2)N1)n1ccc2cccc(OCc3ccccc3)c21 (stereo partly drawn) [(7-Benzyloxy-indol-1-yl)-((R)-2-pyridin-3-yl-thiazolidin-4-yl)-methanone; compound with oxalic acid]
18,7.7,O=C(c1ccccc1)c1cccc(NC(=O)[C@@H]2CSC(c3cccnc3)N2)c1 (stereo partly drawn) [(R)-2-Pyridin-3-yl-thiazolidine-4-carboxylic acid (3-benzoyl-phenyl)-amide]
19,1.6,"COc1cc(C(=O)c2cccc(NC(=O)[C@@H]3CSC(c4cccnc4)N3)c2)cc(OC)c1OC (stereo partly drawn) [(R)-2-Pyridin-3-yl-thiazolidine-4-carboxylic acid [3-(3,4,5-trimethoxy-benzoyl)-phenyl]-amide]"
20,220,O=CN1C(c2cccnc2)SC[C@H]1C(=O)c1c[nH]c2ccccc12 (stereo partly drawn) [(R)-4-(1H-Indole-3-carbonyl)-2-pyridin-3-yl-thiazolidine-3-carbaldehyde]
21,9750,CC(C)(C)OC(=O)N1C(c2cccnc2)SC[C@H]1C(=O)c1c[nH]c2ccccc12 (stereo partly drawn) [(R)-4-(1H-Indole-3-carbonyl)-2-pyridin-3-yl-thiazolidine-3-carboxylic acid tert-butyl ester]
22,1.5,O=C(c1cn(C(=O)N2CCOCC2)c2ccccc12)[C@@H]1CSC(c2cccnc2)N1 (stereo partly drawn) [Morpholin-4-yl-[3-((R)-2-pyridin-3-yl-thiazolidine-4-carbonyl)-indol-1-yl]-methanone]
23,274,O=C(Nc1cccc(Cl)c1)c1ccn2c1CSC2c1cccnc1 (centres undefined) [RP-52770]
24,36,"Cc1ccc2c(c1)c(C(=O)[C@@H]1CSC(c3cccnc3)N1)c(C)n2C(=O)N1CCOCC1 (stereo partly drawn) [[2,5-Dimethyl-3-((R)-2-pyridin-3-yl-thiazolidine-4-carbonyl)-indol-1-yl]-morpholin-4-yl-methanone]"
25,88,Cc1c(C(=O)[C@@H]2CSC(c3cccnc3)N2)c2ccccc2n1C(=O)N1CCOCC1 (stereo partly drawn) [[2-Methyl-3-((R)-2-pyridin-3-yl-thiazolidine-4-carbonyl)-indol-1-yl]-morpholin-4-yl-methanone]
26,1.6,O=C(c1c[nH]c2cc(OCc3ccc(F)cc3)ccc12)[C@@H]1CSC(c2cccnc2)N1 (stereo partly drawn) [[6-(4-Fluoro-benzyloxy)-1H-indol-3-yl]-((R)-2-pyridin-3-yl-thiazolidin-4-yl)-methanone]
27,1.9,O=C(c1c[nH]c2cc(Oc3ccc(F)cc3)ccc12)[C@@H]1CSC(c2cccnc2)N1 (stereo partly drawn) [[6-(4-Fluoro-phenoxy)-1H-indol-3-yl]-((R)-2-pyridin-3-yl-thiazolidin-4-yl)-methanone]
28,37,O=C(c1c[nH]c2cc(OCc3cccnc3)ccc12)[C@@H]1CSC(c2cccnc2)N1 (stereo partly drawn) [[6-(Pyridin-3-ylmethoxy)-1H-indol-3-yl]-((R)-2-pyridin-3-yl-thiazolidin-4-yl)-methanone]

row,SMILES,Ki [nM]
1,O=C(c1cn(Cc2ccccc2)c2ccccc12)[C@@H]1CSC(c2cccnc2)N1 (stereo partly drawn) [(1-Benzyl-1H-indol-3-yl)-((R)-2-pyridin-3-yl-thiazolidin-4-yl)-methanone],49
2,CCn1cc(C(=O)[C@@H]2CSC(c3cccnc3)N2)c2ccccc21 (stereo partly drawn) [(1-Ethyl-1H-indol-3-yl)-((R)-2-pyridin-3-yl-thiazolidin-4-yl)-methanone],5.4
3,O=C(c1c[nH]c2ccccc12)[C@@H]1CSC(c2cccnc2)N1 (stereo partly drawn) [(1H-Indol-3-yl)-((R)-2-pyridin-3-yl-thiazolidin-4-yl)-methanone; compound with oxalic acid],3.4
4,"Cc1ccc2[nH]c(C)c(C(=O)[C@@H]3CSC(c4cccnc4)N3)c2c1 (stereo partly drawn) [(2,5-Dimethyl-1H-indol-3-yl)-((R)-2-pyridin-3-yl-thiazolidin-4-yl)-methanone]",33
5,Cc1[nH]c2ccccc2c1C(=O)[C@@H]1CSC(c2cccnc2)N1 (stereo partly drawn) [(2-Methyl-1H-indol-3-yl)-((R)-2-pyridin-3-yl-thiazolidin-4-yl)-methanone],23
6,O=C(C1CSC(c2cccnc2)N1)n1ccc2c(Cl)cccc21 (centres undefined) [(4-Chloro-indol-1-yl)-(2-pyridin-3-yl-thiazolidin-4-yl)-methanone],33
7,"COc1cc2[nH]cc(C(=O)[C@@H]3CSC(c4cccnc4)N3)c2cc1OC (stereo partly drawn) [(5,6-Dimethoxy-1H-indol-3-yl)-((R)-2-pyridin-3-yl-thiazolidin-4-yl)-methanone]",87
8,O=C(c1c[nH]c2cc(F)ccc12)[C@@H]1CSC(c2cccnc2)N1 (stereo partly drawn) [(6-Fluoro-1H-indol-3-yl)-((R)-2-pyridin-3-yl-thiazolidin-4-yl)-methanone],5.6
9,COc1ccc2c(C(=O)[C@@H]3CSC(c4cccnc4)N3)c[nH]c2c1 (stereo partly drawn) [(6-Methoxy-1H-indol-3-yl)-((R)-2-pyridin-3-yl-thiazolidin-4-yl)-methanone],9.5
10,Cc1ccc2c(C(=O)[C@@H]3CSC(c4cccnc4)N3)c[nH]c2c1 (stereo partly drawn) [(6-Methyl-1H-indol-3-yl)-((R)-2-pyridin-3-yl-thiazolidin-4-yl)-methanone],3.4
11,Cc1cccc2c(C(=O)[C@@H]3CSC(c4cccnc4)N3)c[nH]c12 (stereo partly drawn) [(7-Methyl-1H-indol-3-yl)-((R)-2-pyridin-3-yl-thiazolidin-4-yl)-methanone],6.5
12,"O=C(c1cn(CC(F)(F)F)c2ccccc12)[C@@H]1CSC(c2cccnc2)N1 (stereo partly drawn) [((R)-2-Pyridin-3-yl-thiazolidin-4-yl)-[1-(2,2,2-trifluoro-ethyl)-1H-indol-3-yl]-methanone]",21
13,O=C(Nc1cccc(Cl)c1)[C@@H]1CSC(c2cccnc2)N1 (stereo partly drawn) [(R)-2-Pyridin-3-yl-thiazolidine-4-carboxylic acid (3-chloro-phenyl)-amide],208
14,CNC(=O)Cn1cc(C(=O)[C@@H]2CSC(c3cccnc3)N2)c2ccccc21 (stereo partly drawn) [N-Methyl-2-[3-((R)-2-pyridin-3-yl-thiazolidine-4-carbonyl)-indol-1-yl]-acetamide],2.4
15,O=C(O)Cn1cc(C(=O)[C@@H]2CSC(c3cccnc3)N2)c2ccccc21 (some centres undefined) [[3-(2-Pyridin-3-yl-thiazolidine-4-carbonyl)-indol-1-yl]-acetic acid],30
16,CCOC(=O)Cn1cc(C(=O)[C@@H]2CSC(c3cccnc3)N2)c2ccccc21 (stereo partly drawn) [[3-((R)-2-Pyridin-3-yl-thiazolidine-4-carbonyl)-indol-1-yl]-acetic acid ethyl ester],1.2

# From BindingDB's records for doi:10.1021/jm00039a015 (Abbott Laboratories, 1994)
